# Measured values as given in PubChem BioAssay (NCI).
#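 Exposure lasted 48 hours, with cells grown in 96-well plates and compounds tested at five concentrations. GI50 = concentration required for 50% inhibition of growth. Definition used: TGI = concentration required for complete inhibition of growth.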
# Tests used:
# Experiment in all cases: NCI tumour cell line growth inhibition, 48 h
# PC-3 prostate = tested on: PC-3 prostate
# BT-549 breast = tested on: BT-549 breast
# UACC-257 melanoma = tested on: UACC-257 melanoma
# A498 renal = tested on: A498 renal
# HCT-15 colon = tested on: HCT-15 colon
# CCRF-CEM leukemia = tested on: CCRF-CEM leukemia
# M14 melanoma = tested on: M14 melanoma
# ACHN renal = tested on: ACHN renal
Structure (SMILES),TGI (PC-3 prostate) [µM],TGI (BT-549 breast) [µM],TGI (UACC-257 melanoma) [µM],TGI (A498 renal) [µM],TGI (HCT-15 colon) [µM],TGI (CCRF-CEM leukemia) [µM],TGI (M14 melanoma) [µM],TGI (ACHN renal) [µM],GI50 (PC-3 prostate) [µM],GI50 (BT-549 breast) [µM],GI50 (UACC-257 melanoma) [µM],GI50 (A498 renal) [µM],GI50 (HCT-15 colon) [µM],GI50 (ACHN renal) [µM],GI50 (M14 melanoma) [µM]
O=C1c2ccccc2C(=O)c2c1c1cc(O)ccc1n2Cc1ccc(Cl)cc1Cl,3.97,36.9,69.9,38.1,23.3,18.9,46.6,,,,,,,,
CC(C)Oc1c(O)c2c3c(oc(=O)n3C=CC2c2ccccc2F)c1OC(C)C (stereo not drawn),40.1,,> 100,> 100,> 100,97.6,65.4,> 100,,,,,,,
Cc1cccc2ns[s+]c12,,,> 100,> 100,39.3,> 100,> 100,> 100,,,,,,,
C[Si](C)(C)C1=C2C(=O)c3ccccc3C(=O)C2=C([Si](C)(C)C)[C@@H]2CCCC[C@H]12,> 100,> 100,> 100,> 100,> 100,> 100,> 100,> 100,,,,,,,
COc1cc(NS(C)(=O)=O)ccc1N1Cc2cnc3ccc4[nH]ccc1c4c23,> 100,> 100,> 100,> 100,> 100,> 100,> 100,> 100,,,,,,,
CCCCCCc1cc2cc(C(=O)Nc3cccc(C(F)(F)F)c3)c(=N)oc2cc1O,15.1,6.1,8.95,14,4.36,,6.18,> 34.7,,,,,,,
CC1=C2CC3=C(C)C(=O)O[C@H]3C[C@@H](C)[C@@H]2CC1,> 100,> 100,> 100,> 100,> 100,> 100,> 100,> 100,,,,,,,
CC(C)(C)OC(=O)NCCNC(=O)OCc1ccccc1,> 100,> 100,> 100,,> 100,,> 100,> 100,,,,,,,
CCOC(=O)C1(C/C=C\CBr)CCCCCCC1=O (stereo not drawn),> 100,> 100,> 100,> 100,> 100,> 100,> 100,> 100,,,,,,,
COC(=O)C1(C(=O)OC)CC2=C(S(=O)(=O)c3ccccc3)C[C@@H](C#N)[C@H]2C1,> 100,> 100,> 100,> 100,> 100,> 100,> 100,> 100,,,,,,,
COc1cc(C2c3cc4c(c(O)c3C(=O)C3CCC(=O)N32)OCO4)cc(OC)c1OC (stereo not drawn),> 100,92.5,> 100,> 100,> 100,> 100,> 100,> 100,,,,,,,
COC(=O)C(I(OS(=O)(=O)c1ccc(C)cc1)c1ccccc1)=P(c1ccccc1)(c1ccccc1)c1ccccc1,62,45.5,37.1,44.7,> 100,> 100,32.4,32.6,,,,,,,
COc1ccc2c(c1)CCC1C2CCC2(C)C1CC[C@@]2(O)CNC(=O)/C=C/c1ccc(O)c(O)c1 (stereo partly drawn),10.2,> 100,35.7,39.8,4.99,,7.42,7.16,1.92,3.95,18.5,18.8,1.49,2.19,2.59
CC(C)(C)OC(=O)N(CCCN)CCCCN(CCCN)C(=O)OC(C)(C)C,> 100,> 100,> 100,> 100,> 100,> 100,> 100,> 100,,,,,,,
CCOC(=O)C1C(=O)C=C(c2cc(C)ccc2O)CC1c1cccc(Br)c1 (stereo not drawn),40.4,72.7,38,,10.4,71.7,37,42.2,,,,,,,
COc1cccc2c(NNc3ccc(Cl)cc3)c3ccc([N+](=O)[O-])cc3nc12,26.1,29.8,55.2,33.2,27.3,15.6,41.6,22.4,,,,,,,
O=C(c1ccccc1)c1cc(-c2ccccc2)c(-c2ccccc2)[nH]c(=O)c1=O,> 100,53.1,> 100,> 100,> 100,> 100,> 100,> 100,,,,,,,
N#Cc1c(C#N)c(-c2ccco2)n(/N=C/c2ccco2)c1N,> 100,> 100,> 100,> 100,> 100,> 100,> 100,> 100,,,,,,,
CC1(C)CC(=O)C2=C(C1)OC1=C(CC(C)(C)CC1=O)C2c1ccccc1Cl (stereo not drawn),> 100,,> 100,> 100,> 100,> 100,> 100,> 100,,,,,,,
O=S(=O)(CC#CCS(=O)(=O)c1ccccc1)c1ccccc1,22.3,11.8,14.7,36.3,4,,4.36,3.25,,,,,,,

Structure (SMILES),TGI (PC-3 prostate) [µM],TGI (BT-549 breast) [µM],TGI (UACC-257 melanoma) [µM],TGI (A498 renal) [µM],TGI (HCT-15 colon) [µM],TGI (CCRF-CEM leukemia) [µM],TGI (M14 melanoma) [µM],TGI (ACHN renal) [µM],GI50 (PC-3 prostate) [µM],GI50 (BT-549 breast) [µM],GI50 (UACC-257 melanoma) [µM],GI50 (A498 renal) [µM],GI50 (HCT-15 colon) [µM],GI50 (ACHN renal) [µM],GI50 (M14 melanoma) [µM]
COC(=O)c1ccc2[nH]c3c(c2c1)CC(=O)Nc1ccccc1-3,> 100,> 100,> 100,> 100,> 100,,> 100,> 100,,,,,,,
Nc1cc(N)c2nc(-c3ccccc3)c(Sc3ccc(F)cc3)nc2c1,> 100,44.1,,46,27.4,,30.8,27.7,29.4,22,,27.5,13.4,14.2,15.9
CCC1(CC)C(=O)N(C(=O)c2ccc(Cl)cc2)N(C(=O)c2ccccc2Cl)C1=O,> 100,> 100,> 100,,> 100,> 100,> 100,> 100,,,,,,,
N#Cc1ccc(/C=C2\Cc3ccccc3C2=O)cc1,> 100,> 100,> 100,,> 100,> 100,> 100,> 100,,,,,,,
O=C1NC(N2CCCC(CO)C2)=N/C1=C\c1ccc(O)cc1 (stereo not drawn),> 100,> 100,> 100,,> 100,> 100,> 100,> 100,,,,,,,
COC[C@H](Cc1ccccc1)N=Cc1ccccc1,> 100,> 100,> 100,,> 100,> 100,> 100,> 100,,,,,,,
CC(C)(Oc1ccc(C2C[C@H]2Cl)cc1)C(=O)O (stereo partly drawn),> 100,> 100,> 100,> 100,> 100,,,,,,,,,,
CC(=S)NC1C(Oc2ccc3c(C)cc(=O)oc3c2)OC(CO)C(O)C1O (stereo not drawn),> 100,> 100,> 100,> 100,> 100,> 100,,> 100,,,,,,,
O=C(C(=O)n1ccc2ccccc21)c1c[nH]c2ccccc12,> 10,> 10,> 10,,> 10,> 10,> 10,> 10,,,,,,,
CCO/C=N/C1=C(C#N)C(c2ccc(OC)c(OC)c2)c2c(-c3ccccc3)nn(-c3ccccc3)c2O1 (stereo not drawn),> 100,23.8,> 100,,18,6.26,60,28.3,,,,,,,
O=C(CSCC(=O)N/N=C\c1cc(Br)cc(Br)c1O)N/N=C\c1cc(Br)cc(Br)c1O,> 100,> 100,62,,> 100,,34.8,31.4,,,,,,,
O=c1[nH]/c(=C/c2ccc(OCc3ccccc3)cn2)c(=O)[nH]/c1=C/c1cccnc1,> 100,> 100,> 100,6.46,,,> 22.8,> 100,,,,,,,
O=c1n(CCO)nc2n1CCCN2,> 100,> 100,,,> 100,> 100,> 100,> 100,,,,,,,
COC[C@@H](N=Cc1ccc(OC)cc1)C(C)C,> 100,> 100,> 100,,> 100,> 100,> 100,> 100,,,,,,,
Cc1[nH]c(=O)nc2c1C(=O)N(C(C)C)C(NC(C)C)S2 (stereo not drawn),> 100,,> 100,> 100,> 100,> 100,> 100,> 100,,,,,,,
CC1=CC(=O)C[C@]2(C)[C@@H](O)CC(C(C)CO)C[C@@H]12 (stereo partly drawn),,> 100,> 100,> 100,> 100,,> 100,> 100,,,,,,,
CCCCCCCCCCCCCCCCCc1nc(C#N)c(N)o1,> 100,,> 100,> 100,> 100,> 100,> 100,> 100,,,,,,,
OB1OCc2ccccc21,64.4,> 100,> 100,> 100,> 100,54.9,> 100,,,,,,,,
CC(C)(C)C(=O)C(C#N)C(=O)C(C)(C)C,> 100,,> 100,> 100,> 100,> 100,> 100,> 100,,,,,,,
